# Tested on: Mycobacterium tuberculosis variant bovis
# Test: Antibacterial activity against Mycobacterium bovis BCG assessed as inhibition of bacterial growth incubated for 4 to 7 days
# Format: functional
# Settings: time 4-7 day
smiles,measurement,value
Nc1nc(N)c(N=O)c(OCC2CCCCC2)n1,MIC99,1.6 µM

# Source: ChEMBL document CHEMBL5137025, “Tuberculosis Drug Discovery: Challenges and New Horizons” (J Med Chem, 2022)
